{"source": "patent US8912146B2", "about": "“Derivatives of APF and methods of use” (University of Maryland, Baltimore, priority 2008, dated 2014)", "key": {"[1]": {"test_system": "primary normal human bladder epithelial cells", "test": "3H-thymidine incorporation (antiproliferative activity) in primary normal bladder epithelial cells", "assay_type": "cell-based", "method": "Cell Culture. Cystoscopy was performed under general anesthesia, and 4-mm^2 pieces of transitional epithelium with submucosal bladder tissue were obtained for the growth of primary bladder epithelial cells, as previously described (Keay et al., 1996; 2004). Primary normal bladder epithelial cells were propagated in DMEM-F12 (Media-Tech, Herndon Va.) with 10% heat-inactivated fetal bovine serum (FBS), 1% antibiotic/antimycotic solution, 1% L-glutamine, 0.25 units/mL insulin (all from Sigma, St. Louis, Mo.), and 5 ng/mL hEGF (R&D Systems, Minneapolis, Minn.) at 37° C. in a 5% CO2 atmosphere and characterized by binding of AE-1/AE-3 pancytokeratin antibodies (Signet, Dedham, Mass.).\n^3H-Thymidine Incorporation. Cell proliferation was measured by ^3H-thymidine incorporation into explanted normal human bladder epithelial cells, plating 1.5×10^4 cells/well onto a 96 well cell culture plate (VWR 29442-054), in 150 ul/well MEM containing 10% heat inactivated FBS, 1% antibiotic/antimycotic solution, and 1% L-glutamine (all from Sigma), resulting in a doubling time of 48-72 hours, as previously described (Keay et al., 1996; 2004). Each purified lyophilized synthetic APF congener was resuspended in acetonitrile/distilled water (1:1), and applied to the cells in serum-free MEM (containing only L-glutamine and antibiotics/antimycotics); cell controls received acetonitrile/distilled water diluted in serum-free MEM alone. Cells were then incubated at 37° C. in a 5% CO2 atmosphere for 48 hours. The cell contents harvested and methanol-fixed onto glass fiber filter paper, and the amount of radioactivity incorporated determined. Significant inhibition of ^3H-thymidine incorporation was defined as a mean decrease in counts per minute of greater than 2 standard deviations from the mean of control cells for each plate. Inhibition of cell proliferation was determined from a semi-log plot of dose-response for each APF derivative; IC50 was determined as the concentration of each derivative that caused a mean 50% inhibition of thymidine incorporation as compared to the mean of untreated cell controls.\nStatistical Analysis. The thymidine incorporation (APF biological activity) assay was performed in triplicate on at least two separate runs, with 1 run simultaneously in triplicate on the same plate. The significance of the difference between mean values for each congener vs. mean values for compound 1 was determined by an analysis of variance."}, "[2]": {"test_system": "APF activity in normal bladder epithelial cells", "test": "Inhibition of APF antiproliferative activity in as-APF-treated normal bladder epithelial cells (3H-thymidine)", "assay_type": "cell-based, human", "settings": "pretreatment, then as-APF (0.25 or 0.025 μM; 25 nM in FIG. 54), normal and/or IC/PBS bladder cells", "method": "Explanted cells grown from the biopsies of normal controls were plated on Day 0 at 1.5×10^4 cells/well onto a 96-well cell culture plate (VWR 29442-054), in 150 μL/well MEM containing 10% heat-inactivated FBS, 1% antibiotic/antimycotic solution, and 1% L-glutamine (all from Sigma), serum starved on Day 1, and treated with varying concentrations of D-pipecolic acid diluted in phosphate buffered saline (PBS) for 2 hours at 37° C. in a 5% CO2 atmosphere. […] The cell contents were then harvested and methanol-fixed onto glass fiber filter paper, and the amount of radioactivity incorporated was determined. Significance of the difference in mean values between groups was determined by an analysis of variance.\nIC/PBS cells were incubated with varying concentrations of two derivatives shown to inhibit APF activity in normal bladder cells—GalGalNAc-TV(D-pipecolic acid) AAVVVA (SEQ ID NO:14) and GalGalNAc-TV (D-proline)AAVVVA (SEQ ID NO:27). Cell proliferation was determined by ^3H-thymidine incorporation; gene expression by quantitative RT-PCR; specific protein expression by Western blot analysis; tight junction formation by confocal immunofluorescence microscopy; and paracellular permeability by ^14C-mannitol and ^3H-inulin flux between confluent cells on Transwell plates. Significance of the difference in mean values between groups was determined by an analysis of variance for each assay. […]"}, "[3]": {"test_system": "ZO-1, occludin, claudin 1, 4, 8, 12 mRNA in IC/PBS cells", "test": "qRT-PCR of tight junction protein mRNA in IC/PBS cells", "assay_type": "cell-based, human", "settings": "16 or 30 day treatment", "method": "Total RNA was extracted from IC/PBS and normal control epithelial cell explants using the RNEasy Plus Mini Kit (Qiagen) according to the manufacturer's protocol. Quantitative real time RT-PCR for tight junction gene expression was performed using Quantitect Primers (Qiagen), SYBR Green RT-PCR kit reagents (Qiagen), and a Roche 480 Light-Cycler. Samples were tested in triplicate runs, and specific mRNA levels quantified and compared to mRNA levels for β-actin using LightCycler 480 real-time PCR analysis software (version 1.5).\nFor the permeability assay, the percentage of total counts in the basal medium was determined in four experiments (using different IC/PBS cell donors), and expressed as mean±standard deviation. Crossover point analysis was performed for qRT-PCR data, and expression of each gene was quantified relative to β-actin; this value was expressed as mean±standard error of the mean for duplicate runs performed on two separate occasions. ^3H-thymidine incorporation was determined in triplicate on two separate occasions, and the CPM expressed as mean±standard deviation."}}, "note": "Entries after “also recorded” stand apart in the source; their conditions may differ. Like-named read-outs stand apart in the source and are kept apart here.", "data": [{"smiles": "CC(=O)NC1C(O[C@@H]2OC(CO)[C@H](O)C(O)C2O)[C@@H](O)C(CO)O[C@@H]1OC(C)[C@H](N)C(=O)NC(C(=O)N1CCCC1C(=O)NC(C)C(=O)N[C@@H](C)C(=O)NC(C(=O)N[C@H](C(=O)NC(C(=O)N[C@@H](C)C(=O)O)C(C)C)C(C)C)C(C)C)C(C)C", "note": "(stereo in doubt) [Derivative 8, GalGalNAc-TV(D-proline)AAVVVA]", "values": [{"measurement": "antiproliferative activity compared with as-APF (1), in words", "setting": "[1]", "result": "completely abolished activity"}, {"measurement": "antiproliferative activity compared with as-APF (1), in words", "setting": "[1]; listed as D-proline APF", "result": "Neither D-proline APF nor D-pipecolic acid APF had any intrinsic antiproliferative activity"}, {"measurement": "% of activity", "setting": "[1]; relative to 1 (as-APF) run on the same plate, from IC50, inactive = no significant activity at <25 μM", "result": "inactive"}, {"measurement": "inhibition of APF antiproliferative activity", "setting": "[2]", "result": "blocked APF antiproliferative activity"}, {"measurement": "inhibition of APF antiproliferative activity", "setting": "[2]; listed as D-proline APF", "result": "inhibit the effect of as-APF on normal bladder epithelial cell proliferation; also recorded: inhibited this activity in nanomolar concentrations in a dose-dependent manner"}, {"measurement": "tight junction protein (ZO-1, occludin, claudins) mRNA expression in IC/PBS cells", "setting": "[3]; listed as D-proline", "result": "significantly (p<0.05) stimulate mRNA expression"}, {"measurement": "tight junction protein (ZO-1, occludin, claudins) mRNA expression in IC/PBS cells", "setting": "[3]; listed as D-proline APF", "result": "stimulation of tight junction protein expression"}, {"measurement": "tight junction protein (ZO-1, occludin, claudins) mRNA expression in IC/PBS cells", "setting": "[3]; listed as GalGalNAc-TV-(D-proline)-AAVVVA", "result": "significantly increased"}]}]}
